Experimental data: patent US11530226B2, “Azepane inhibitors of menin-MLL interaction” (Janssen Pharmaceutica NV, priority 2016, dated 2022)
Where two headings read alike, the source gives them in different places.

How the values were obtained:
[1] = target: T1, terbium chelate-labeled menin / FITC-MBM1 peptide (Menin/MLL) (Homo sapiens, UniProt O00255, T541A); assay: Menin/MLL homogenous time-resolved fluorescence (HTRF) assay; type: binding; conditions: read-out: (2) Menin HTRF assay (IC50 (nM))
T1 construct: Menin (a. a. l-610-6×his tag) was labeled with terbium cryptate as follows
T1 sequence (O00255 with tags, fused parts or gaps T541A): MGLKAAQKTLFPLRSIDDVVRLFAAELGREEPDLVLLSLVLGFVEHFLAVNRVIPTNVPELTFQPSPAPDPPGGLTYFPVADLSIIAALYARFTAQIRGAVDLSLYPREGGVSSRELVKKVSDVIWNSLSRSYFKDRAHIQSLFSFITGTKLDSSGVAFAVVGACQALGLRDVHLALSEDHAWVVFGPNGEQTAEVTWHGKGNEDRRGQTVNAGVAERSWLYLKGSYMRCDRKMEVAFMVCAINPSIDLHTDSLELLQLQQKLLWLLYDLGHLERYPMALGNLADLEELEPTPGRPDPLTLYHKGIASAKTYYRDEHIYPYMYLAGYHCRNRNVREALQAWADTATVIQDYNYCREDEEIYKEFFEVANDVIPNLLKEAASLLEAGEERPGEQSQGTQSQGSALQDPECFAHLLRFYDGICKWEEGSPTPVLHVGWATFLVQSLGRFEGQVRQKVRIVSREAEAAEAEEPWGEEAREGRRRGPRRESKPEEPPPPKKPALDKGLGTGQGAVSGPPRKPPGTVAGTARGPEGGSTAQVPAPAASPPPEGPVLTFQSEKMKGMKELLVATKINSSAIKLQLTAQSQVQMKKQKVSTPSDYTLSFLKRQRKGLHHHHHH
Method in brief: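 Terbium cryptate-labeled menin (aa 1-610, 6×His), 100 pM, preincubated 5 min with compound, then 75 nM FITC-MBM1 peptide added for 15 min at ambient temperature. Buffer: 40 mM Tris pH 7.5, 50 mM NaCl, 1 mM DTT, 0.05% Pluronic F-127, 0.5% DMSO. HTRF 520/490 ratio; 11-point threefold titration from 25 μM, IC50 from % inhibition curve.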

[2] = test system: MOLM14 cells (MLL-AF9); assay: Proliferation assay (spheroid-like growth, 8 d, live-cell imaging), MOLM14; type: cell-based, human; conditions: absolute IC50 from AUC of confluence, read-out: (3) Spheroid assay MOLM14 (IC50 (μM))
Experimental: The anti-proliferative effect of menin/MLL protein/protein interaction inhibitor test compounds was assessed in human leukemia cell lines. The cell lines MV-4-1 1 and MOLM14 harbor MEL translocations and express the MEL fusion proteins MLL-AF4 and MLL-AF9, respectively, as well as the wildtype protein from the second allele. […] K562 was used as a control cell line containing two MLL wildtype alleles in order to exclude compounds that display general cytotoxic effects.
MV-4-1 1 and MOLM14 were cultured in RPMI-1640 (Sigma Aldrich) supplemented with 10% fetal bovine serum (HyClone), 2 mM L-glutamine (Sigma Aldrich) and 50 μg/ml gentamycin (Gibco). K562 were propagated in RPMI-1640 (Sigma Aldrich) supplemented with 20% fetal bovine serum (HyClone), 2 mM L-glutamine (Sigma Aldrich) and 50 μg/ml gentamycin (Gibco).
In order to assess the anti-proliferative effects, 1,500 MV-4-1 1, 300 MOLM14 or 750 K562 cells were seeded in 200 μl media per well in 96-well round bottom, ultra-low attachment plates (Costar, catalogue number 7007). Cell seeding numbers were chosen based on growth curves to ensure linear growth throughout the experiment. Test compounds were added at different concentrations and the DMSO content was normalized to 0.3%>. Cells were incubated for 8d at 37° C. and 5% C02. Spheroid like growth was monitored in real-time by live-cell imaging (IncuCyteZOOM, Essenbio, 4× objective) acquiring one image every four hours for 8d. Confluence (%) as a measure of spheroid size was determined using an integrated analysis tool.
In order to determine the cumulative effect of the test compounds over time, the area under the curve (AUC) in a plot of confluence against time was calculated. Confluence at the beginning of the experiment (t=0) was used as baseline for the AUC calculation.
Absolute IC50 values were calculated according to the following procedure: % Control=(AUC sample/AUC control)*100 AUC control=mean AUC of control values(cells without compound/DMSO as vehicle control)
A non-linear curve fit was applied using the least squares (ordinary) fit method to the plot of % control versus compound concentration. Based on this, the absolute IC50 value (half maximal inhibitory concentration of the test compound causing an anti-proliferative effect of 50% relative to the vehicle control) was calculated.

| IC50 [1] [nM] | IC50 ([2]; Homo sapiens, MOLM-14, 192 h) [µM] | IC50 [2] [µM] | SMILES |
| --- | --- | --- | --- |
| 50 | 11.3 |  | CC(C)CNC1CCCN(c2ncnc3sc(CC(F)(F)F)cc23)CC1 (single isomer, unassigned) [Compound B1A, N-isobutyl-1-(6-(2,2,2-trifluoroethyl)thieno[2,3-d]pyrimidin-4-yl)azepan-4-amine] |
| 788 |  | > 15 | CC(C)CNC1CCCN(c2ncnc3sc(CC(F)(F)F)cc23)CC1 (single isomer, unassigned) [Compound B1B, N-isobutyl-1-(6-(2,2,2-trifluoroethyl)thieno[2,3-d]pyrimidin-4-yl)azepan-4-amine] |
| 14 | 3.1 |  | FC(F)(F)Cc1cc2c(N3CCC[C@@H](NCc4ccccc4)CC3)ncnc2s1 [Compound 3, (R)N-benzyl-1-(6-(2,2,2-trifluoroethyl)thieno[2,3-d]pyrimidin-4-yl)azepan-4-amine] |
| 330 | 7.6 |  | FC(F)(F)Cc1cc2c(N3CCC[C@H](NCc4ccccc4)CC3)ncnc2s1 [Compound 4, (S)-N-benzyl-1-(6-(2,2,2-trifluoroethyl)thieno[2,3-d]pyrimidin-4-yl)azepan-4-amine] |
